# System: THP-1 cells
# Test: cDNA microarray analysis of LPS-induced gene transcription in THP-1 cells
# Format: cell-based, Human
# Procedure: THP-1 cells were cultured in RPMI1640 medium, supplemented with 10% FBS/100 units/ml Penicillin/10 μg/ml Streptomycin at 37° C., under 5% CO2. […] For the untreated control group (no LPS, no compound) and LPS alone group, equivalent volumes of DMSO were added to the medium. Cells were cultured at 37° C. and pellets were collected at 0 hr, 1 hr, 3 hr, 6 hr, 12 hr & 24 hr. Cell pellets were stored at −80° C. if RNA isolation was not conducted immediately. For experiments to study cytokine secretion in culture supernatants, THP-1 cells were washed twice with PBS, resuspended at 3.4×10^5/ml and cultured in 96-well plates at 250 μL, per well at 37° C. […] Supernatants were collected at different time points as indicated in the figures and were kept at ≦−20° C. until analysis of cytokine production.
# Total RNA was isolated using RNeasy mini kit from QIAGEN (Valencia, Calif.) according to the manufacturer's instructions. RNA samples were stored at −80° C.
# Five μg of total RNA was linearly amplified to double-stranded cDNA using T7-based amplification. The cDNA was purified using the QIAquick 96 PCR purification kit (QIAGEN Valencia, Calif.), and used to generate amplified (a) RNA using AmpliScribe™ T7 High Yield Transcription Kit (Epicentre, Madison, Wis.). Ten μg of purified aRNA was reverse transcribed to cDNA using the SuperScript RTII kit (Invitrogen) and labeled by direct incorporation of Cy3-dCTP. The generated cDNA probe was used for hybridizing to cDNA microarrays.
# Each clone was spotted in duplicate on the array.
# [1] = LPS 100 ng/ml, tipifarnib 5 μM, 3 hr
# [2] = LPS 100 ng/ml, tipifarnib 5 μM, 6 hr
# [3] = LPS 100 ng/ml, tipifarnib 5 μM, 12 hr
# [4] = LPS 100 ng/ml, tipifarnib 5 μM, 24 hr
structure (smiles),measurement,setting,value
"Cn1cncc1C(N)(c1ccc(Cl)cc1)c1ccc2c(c1)c(-c1cccc(Cl)c1)cc(=O)n2C (single isomer, unassigned; (+)) [tipifarnib, (+)-6-[amino(4-chlorophenyl)(1-methyl-1H-imidazol-5-yl)methyl]-4-(3-chlorophenyl)-1-methyl-2(1H)-quinolinone]",Fold-change (tipifarnib/LPS vs LPS) S100A9,[1],−1.15
same,Fold-change (tipifarnib/LPS vs LPS) STAT1,[1],−1.32
same,Fold-change (tipifarnib/LPS vs LPS) TAP1,[1],1.15
same,Fold-change (tipifarnib/LPS vs LPS) TAP2,[1],−1.15
same,Fold-change (tipifarnib/LPS vs LPS) TIMP3,[1],−1.41
same,Fold-change (tipifarnib/LPS vs LPS) TRIM22,[1],1.00
same,Fold-change (tipifarnib/LPS vs LPS) UBE2L6,[1],−1.07
same,Fold-change (tipifarnib/LPS vs LPS) B2M,[2],−1.23
same,Fold-change (tipifarnib/LPS vs LPS) C3AR1,[2],−1.23
same,Fold-change (tipifarnib/LPS vs LPS) CCL3,[2],−1.07
same,Fold-change (tipifarnib/LPS vs LPS) CCL4,[2],1.07
same,Fold-change (tipifarnib/LPS vs LPS) CCND1,[2],−1.15
same,Fold-change (tipifarnib/LPS vs LPS) IER3,[2],1.15
same,Fold-change (tipifarnib/LPS vs LPS) IFI16,[2],−1.32
same,Fold-change (tipifarnib/LPS vs LPS) IFIT1,[2],−1.41
same,Fold-change (tipifarnib/LPS vs LPS) IGFBP3,[2],1.00
same,Fold-change (tipifarnib/LPS vs LPS) IL8,[2],−1.15
same,Fold-change (tipifarnib/LPS vs LPS) KCNK17,[2],−1.32
same,Fold-change (tipifarnib/LPS vs LPS) LGR7,[2],−1.41
same,Fold-change (tipifarnib/LPS vs LPS) MMP9,[2],−1.41
same,Fold-change (tipifarnib/LPS vs LPS) NEXN,[2],−1.41
same,Fold-change (tipifarnib/LPS vs LPS) NFKB2,[2],−1.07
same,Fold-change (tipifarnib/LPS vs LPS) PTX3,[2],−1.32
same,Fold-change (tipifarnib/LPS vs LPS) S100A9,[2],−1.07
same,Fold-change (tipifarnib/LPS vs LPS) TIMP3,[2],−1.23
same,Fold-change (tipifarnib/LPS vs LPS) UBE2L6,[2],−1.41
same,Fold-change (tipifarnib/LPS vs LPS) ABCB8,[3],−1.23
same,Fold-change (tipifarnib/LPS vs LPS) CCL3,[3],1.23
same,Fold-change (tipifarnib/LPS vs LPS) GNPNAT1,[3],−1.41
same,Fold-change (tipifarnib/LPS vs LPS) IER3,[3],1.00
same,Fold-change (tipifarnib/LPS vs LPS) IFI16,[3],−1.23
same,Fold-change (tipifarnib/LPS vs LPS) IFIT1,[3],−1.32
same,Fold-change (tipifarnib/LPS vs LPS) IL1RN,[3],−1.15
same,Fold-change (tipifarnib/LPS vs LPS) IL8,[3],1.32
same,Fold-change (tipifarnib/LPS vs LPS) KCNK17,[3],1.00
same,Fold-change (tipifarnib/LPS vs LPS) LAP3,[3],−1.23
same,Fold-change (tipifarnib/LPS vs LPS) LY6E,[3],1.15
same,Fold-change (tipifarnib/LPS vs LPS) MX1,[3],1.32
same,Fold-change (tipifarnib/LPS vs LPS) MYD88,[3],−1.23
same,Fold-change (tipifarnib/LPS vs LPS) NEXN,[3],−1.15
same,Fold-change (tipifarnib/LPS vs LPS) NFKB2,[3],−1.32
same,Fold-change (tipifarnib/LPS vs LPS) PTX3,[3],−1.32
same,Fold-change (tipifarnib/LPS vs LPS) STAT1,[3],1.00
same,Fold-change (tipifarnib/LPS vs LPS) TAP1,[3],−1.15
same,Fold-change (tipifarnib/LPS vs LPS) TAP2,[3],−1.32
same,Fold-change (tipifarnib/LPS vs LPS) TIMP3,[3],−1.15
same,Fold-change (tipifarnib/LPS vs LPS) TRIM22,[3],−1.07
same,Fold-change (tipifarnib/LPS vs LPS) UBE2L6,[3],−1.15
same,Fold-change (tipifarnib/LPS vs LPS) ABCB8,[4],−1.23
same,Fold-change (tipifarnib/LPS vs LPS) B2M,[4],1.15
same,Fold-change (tipifarnib/LPS vs LPS) CCND1,[4],−1.23
same,Fold-change (tipifarnib/LPS vs LPS) IER3,[4],1.23
same,Fold-change (tipifarnib/LPS vs LPS) IL1B,[4],−1.23
same,Fold-change (tipifarnib/LPS vs LPS) IL8,[4],−1.07
same,Fold-change (tipifarnib/LPS vs LPS) LY6E,[4],−1.32
same,Fold-change (tipifarnib/LPS vs LPS) MMP9,[4],−1.41
same,Fold-change (tipifarnib/LPS vs LPS) MX1,[4],−1.32
same,Fold-change (tipifarnib/LPS vs LPS) MYD88,[4],−1.32
same,Fold-change (tipifarnib/LPS vs LPS) TAP1,[4],−1.23
same,Fold-change (tipifarnib/LPS vs LPS) TAP2,[4],−1.23
same,Fold-change (tipifarnib/LPS vs LPS) TIMP3,[4],1.15
same,Fold-change (tipifarnib/LPS vs LPS) UBE2L6,[4],−1.41
same,number of LPS-induced transcripts downregulated,"out of 121 genes with at least […] induction by LPS at 2 time points, at least […] decrease at one or more time points",34
